In patent publication US20150272939A1, “Identification of Small Molecule Inhibitors of Jumonji AT-Rich Interactive Domain 1A (JARID1A) and 1B (JARID1B) Histone Demethylase” (Yale University, priority 2012, published 2015):
Several values for one entry are separate records, joined by “and”; a condition that tells them apart may be missing. Equal values may be shown once. Where a name gives a salt, the structure may show the parent alone. Read-outs that look alike come from different tables or passages of the source.

Legend:
[1] = AlphaScreen counterscreen against bio-H3K4me2 peptide in the absence of enzyme (artifact signal); settings: for Artifact Signal (percent): effect of the compound when incubated with bio-H3K4me2 peptide (counterscreen, no enzyme); for Artifact signal: effect of the compound when it is incubated with bio-H3K4me2 peptide: counterscreen, no enzyme;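 on all read-outs here: counterscreen run without enzyme against bio-H3K4me2 peptide to remove false positive hits from the JARID1 demethylase AlphaScreen screen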
JARID1B = biological target: T1, JARID1B (Homo sapiens, UniProt Q9UGL1); assay: FLAG-JARID1B histone demethylase assay with AlphaScreen detection (HTS and dose response); assay type: biochemical; settings: for Assay − Artifact Signal (percent): assay signal minus artifact signal; for inhibition at 20 µM / Inhibitory effect (percent): high-throughput screen, compound 20 μM; for inhibition at 20 µM: read-out: Inhibitory effect (percent); for Assay Signal (percent) / Validation result of HTS active: effect of the compound in the JARID1B AlphaScreen demethylase assay: validation of HTS actives; for Assay Signal (percent): effect of compound in JARID1B AlphaScreen assay; for Validation result of HTS active: effect of the compound in the JARID1B AlphaScreen demethylase assay: total signal before subtraction of artifact signal;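 on Assay Signal (percent): compound tested at 20 µM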;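 on Assay − Artifact Signal (percent): compound tested at 20 µM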;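 on all read-outs here: FLAG-tagged JARID1B at 4 nM acting on a biotinylated H3K4me3 peptide, demethylation read by AlphaScreen luminescence, with hits checked against bio-H3K4me2 without enzyme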
T1 construct: The FLAG tagged full length JARID1B enzyme was expressed in Sf21 insect cells using FLAG-JARID1B baculoviruses; FLAG (N); made in house; host or cells: Sf21 insect cells (baculovirus)
T1 sequence (Q9UGL1 whole entry): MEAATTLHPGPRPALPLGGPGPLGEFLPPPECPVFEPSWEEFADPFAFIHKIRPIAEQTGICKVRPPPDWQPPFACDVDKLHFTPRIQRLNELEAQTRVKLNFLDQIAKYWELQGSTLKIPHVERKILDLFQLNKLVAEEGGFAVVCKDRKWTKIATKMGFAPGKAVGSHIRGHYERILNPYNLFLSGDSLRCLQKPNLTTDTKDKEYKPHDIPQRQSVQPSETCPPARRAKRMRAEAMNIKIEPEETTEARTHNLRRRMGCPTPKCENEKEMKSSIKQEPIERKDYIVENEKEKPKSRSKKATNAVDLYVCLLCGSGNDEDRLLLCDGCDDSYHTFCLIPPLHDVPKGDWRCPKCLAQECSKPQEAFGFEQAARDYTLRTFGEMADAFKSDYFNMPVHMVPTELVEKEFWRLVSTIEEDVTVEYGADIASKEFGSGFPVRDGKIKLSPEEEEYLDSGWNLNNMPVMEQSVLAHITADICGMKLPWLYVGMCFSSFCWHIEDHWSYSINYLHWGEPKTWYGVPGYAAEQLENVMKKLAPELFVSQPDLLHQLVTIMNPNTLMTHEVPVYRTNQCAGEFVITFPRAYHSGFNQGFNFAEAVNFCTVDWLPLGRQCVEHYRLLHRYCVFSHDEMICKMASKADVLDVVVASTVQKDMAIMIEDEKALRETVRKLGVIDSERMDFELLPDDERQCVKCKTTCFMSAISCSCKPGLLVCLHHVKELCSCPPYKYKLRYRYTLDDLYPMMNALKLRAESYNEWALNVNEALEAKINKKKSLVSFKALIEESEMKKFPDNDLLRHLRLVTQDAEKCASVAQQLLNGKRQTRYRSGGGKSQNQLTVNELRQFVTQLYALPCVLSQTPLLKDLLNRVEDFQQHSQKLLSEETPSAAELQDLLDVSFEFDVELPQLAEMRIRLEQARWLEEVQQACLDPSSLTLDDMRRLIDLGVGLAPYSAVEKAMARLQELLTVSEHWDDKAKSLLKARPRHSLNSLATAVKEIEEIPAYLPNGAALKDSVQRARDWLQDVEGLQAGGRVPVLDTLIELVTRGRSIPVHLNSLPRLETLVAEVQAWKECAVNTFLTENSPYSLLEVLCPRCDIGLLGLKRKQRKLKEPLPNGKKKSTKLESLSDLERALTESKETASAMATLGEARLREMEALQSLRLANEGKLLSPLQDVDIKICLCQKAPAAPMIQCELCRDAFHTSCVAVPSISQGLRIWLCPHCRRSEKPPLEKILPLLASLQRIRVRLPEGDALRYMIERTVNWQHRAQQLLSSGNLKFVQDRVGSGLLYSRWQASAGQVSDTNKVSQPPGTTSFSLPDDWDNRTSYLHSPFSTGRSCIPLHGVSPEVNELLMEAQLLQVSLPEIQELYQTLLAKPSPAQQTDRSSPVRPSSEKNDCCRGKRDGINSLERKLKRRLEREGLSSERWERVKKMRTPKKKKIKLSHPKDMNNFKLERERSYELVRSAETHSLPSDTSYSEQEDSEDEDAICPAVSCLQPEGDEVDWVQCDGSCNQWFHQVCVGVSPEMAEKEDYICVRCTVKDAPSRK

[2] = standard demethylase conditions (10 μM α-KG, 50 μM Fe (II))
[3] = IDs marked *: additional hits under reaction condition with 1 mM α-KG

Structure (SMILES) | Artifact Signal (percent) [1] [%] | Assay − Artifact Signal (percent) (JARID1B) [%] | inhibition at 20 µM (JARID1B; [2]) [%] | Assay Signal (percent) (JARID1B) [%] | inhibition at 20 µM (JARID1B; [3]) [%] | Artifact signal: effect of the compound when it is incubated with bio-H3K4me2 peptide [1] | Inhibitory effect (percent) (JARID1B; [2]) | Validation result of HTS active: effect of the compound in the JARID1B AlphaScreen demethylase assay (JARID1B)
NCCc1cc(O)c(O)cc1O [YU033940, OXIDOPAMINE HYDROCHLORIDE, reference compound] | 16.96 | 19.88 | 41 | 36.84 | – | – | – | –
COc1cc(NC(C)CCCN)c2ncccc2c1 (stereo not drawn) [YU033971, PRIMAQUINE DIPHOSPHATE, reference compound] | −4.11 | 50.60 | 57.5 | 46.49 | – | – | – | –
Nc1nc2nc[nH]c2c(=S)[nH]1 [YU034024, THIOGUANINE, reference compound] | 0.37 | 36.52 | – | 36.89 | 52.2 | – | – | –
CC(C)NNC(=O)c1ccncc1 [YU034066, IPRONIAZID SULFATE, reference compound] | 3.41 | 69.09 | 75.9 | 72.51 | – | – | – | –
O=C([O-])c1ccccc1-c1c2cc(Br)c(=O)cc-2oc2[c]([Hg][OH])c([O-])c(Br)cc12 [YU034068, MERBROMIN, reference compound] | – | – | – | – | – | −1.81 | 99.27% | 3.43
O=c1c(O)c(-c2ccc(O)c(O)c2)oc2cc(O)cc(O)c12 [YU034090, QUERCETIN, reference compound] | – | – | – | – | – | 58.14 | 80.17% | 62.82
C/C1=C2/[N-][C@H]([C@H](CC(N)=O)[C@@]2(C)CCC(=O)NC[C@@H](C)OP(=O)([O-])O[C@H]2[C@@H](O)[C@@H](n3cnc4cc(C)c(C)cc43)O[C@@H]2CO)[C@]2(C)N=C(/C(C)=C3N=C(/C=C4N=C1[C@@H](CCC(N)=O)C\4(C)C)[C@@H](CCC(N)=O)[C@]\3(C)CC(N)=O)[C@@H](CCC(N)=O)[C@]2(C)CC(N)=O.[Co] [YU034137, COBALAMINE, reference compound] | 1.27 | 28.34 | – | 27.06 | – | – | 63.90% | –
C=C1c2cccc(O)c2C(=O)C2=C(O)[C@]3(O)C(=O)C(C(N)=O)=C(O)[C@@H](N(C)C)[C@@H]3[C@@H](O)[C@H]12 [YU034167, METHACYCLINE HYDROCHLORIDE, reference compound] | – | – | 51.5 | – | – | 56.96 | – | 62.51
Cc1cc2c(C(C)C)c(O)c(O)c(C=O)c2c(O)c1-c1c(C)cc2c(C(C)C)c(O)c(O)c(C=O)c2c1O [YU034280, GOSSYPOL-ACETIC ACID COMPLEX, reference compound] | – | – | 78.2 | – | – | 64.46 | – | 54.61
C[C@@](Cc1ccc(O)c(O)c1)(NN)C(=O)O [YU034292, CARBIDOPA, reference compound] | 53.76 | 26.51 | 100 | 80.27 | – | – | – | –
O=c1oc2c(O)c(O)cc3c(=O)oc4c(O)c(O)cc1c4c23 [YU034320, ELLAGIC ACID, reference compound] | 2.37 | 9.70 | – | 12.08 | – | 31.44 | 61.25% and 40.88% | 37.80
O=C(O)CCCC[C@@H]1SC[C@@H]2NC(=O)N[C@@H]21 [YU034331, BIOTIN, reference compound] | – | – | 104 | – | – | 99.61 | – | 104.67
N[C@@H](Cc1ccc(O)c(O)c1)C(=O)O [YU034332, LEVODOPA, reference compound] | 14.27 | 41.47 | 68.8 | 55.74 | – | – | – | –
CCCCC(CC)CNC(=N)NC(=N)NCCCCCCNC(=N)NC(=N)NCC(CC)CCCC (stereo not drawn) [YU034347, ALEXIDINE HYDROCHLORIDE, reference compound] | 5.60 | 66.40 | 80.6 | 72.00 | – | – | – | –
CN(C)CCCN1c2ccccc2Sc2ccc(C(F)(F)F)cc21 [YU034370, TRIFLUPROMAZINE HYDROCHLORIDE, reference compound] | – | – | 66 | – | – | −2.95 | – | 4.23
Cc1cc(N)c2ccccc2[n+]1CCCCCCCCCC[n+]1c(C)cc(N)c2ccccc21 [YU034372, DEQUALINIUM CHLORIDE, reference compound] | 0.57 | 32.23 | 42.1 | 32.80 | – | – | – | –
CCCCCCCCCCCCCCCC[N+](C)(C)C [YU034377, CETRIMONIUM BROMIDE, reference compound] | – | – | 94.2 | – | – | −6.13 | – | −6.81
CN(C)C(=S)SSC(=S)N(C)C [YU034426, THIRAM, reference compound] | 7.49 | 59.23 | 64.2 | 66.73 | – | – | – | –
O=[N+]([O-])c1cc(O)c(O)c([N+](=O)[O-])c1 [YU034463, 3,5-DINITROCATECHOL, reference compound] | 11.72 | 27.05 | – | 38.78 | – | – | 49.87% | –
CCC(=O)O[C@]1(C(=O)CCl)[C@@H](C)C[C@H]2[C@@H]3CCC4=CC(=O)C=C[C@]4(C)[C@@]3(F)[C@@H](O)C[C@@]21C [YU034506, CLOBETASOL PROPIONATE, reference compound] | – | – | 98.9 | – | – | −1.34 | – | 5.62
NC(=O)c1ncn([C@@H]2O[C@H](CO)[C@@H](O)[C@H]2O)n1 [YU034518, RIBAVIRIN, reference compound] | −5.97 | 23.17 | 79.7 | 17.20 | – | – | – | –
N.N.[Cl][Pt][Cl] [YU034538, CISPLATIN, reference compound] | 8.53 | 40.64 | – | 49.17 | – | – | 40.06% | –
NNC(=O)c1ccncc1.Nc1ccc(C(=O)O)c(O)c1 [YU034557, PASINIAZID, reference compound] | 1.76 | 42.63 | – | 44.38 | – | – | 46.37% | –
CC(=O)C(C)O[Si](C(C)C)(C(C)C)C(C)C (stereo not drawn) [YU035082] | 6.78 | 15.58 | – | 22.36 | 95.8 | – | – | –
CNC(C(=O)N(C)OC)C(C)C (stereo not drawn) [YU035100] | 1.39 | 11.75 | 88 | 13.14 | – | – | – | –
C=CCO[C@H]1[C@H](O)[C@H](OCC=C)[C@H](O)[C@@H](OCC=C)[C@@H]1O [YU035165] | 2.11 | 13.07 | 49.5 | 15.19 | – | – | – | –
CCN(CC)C(=S)SSC(=S)N(CC)CC [YU035331, reference compound] | −3.39 | 40.15 | – | 36.77 | 40.5 | – | – | –
